# Measurements: PMC11672637, “7-O-Carboxylic Acid-Substituted 3-O-Alkyl Difluoroquercetin; An Aztreonam-Potentiating Agent Against Carbapenemase-Producing Pseudomonas aeruginosa Through Simultaneous Inhibition of Metallo-β-Lactamase and Efflux Pump” (Antibiotics, 2024)
# Read-outs that look alike come from different tables or passages of the source.
# Tests used:
# Assay type in all cases: cell-based, P. aeruginosa
# PA-041, blaNDM = test: MIC / checkerboard with ATM; details: for MIC: Pseudomonas aeruginosa, read-out: MIC of ATM with 5, PA-041
# PA-002, blaIMP = test: Time–kill assay; details: for Log CFU/mL, ATM + 5: 24 h
# Description: Aliquots (50 μL) were taken from the incubation mixture at regular time intervals (t = 0, 3, 6, and 24 h), serially diluted in 0.85% NaCl solution, and plated on BAP. Bacterial colonies were counted, and the data are presented as the means of at least three independent experiments.
# PA-021, blaIMP = test: MIC / checkerboard with ATM; details: for MIC: Pseudomonas aeruginosa, read-out: MIC of ATM with 5, PA-021
# PA-032, blaIMP = test: MIC / checkerboard with ATM; details: for MIC: Pseudomonas aeruginosa, read-out: MIC of ATM with 5, PA-032
# PA-026, blaNDM = test: MIC / checkerboard with ATM; details: for MIC: Pseudomonas aeruginosa, read-out: MIC of ATM with 5, PA-026
# PA-040, blaNDM = test: MIC / checkerboard with ATM; details: for MIC: Pseudomonas aeruginosa, read-out: MIC of ATM with 5, PA-040
# PA-014, blaGES = test: MIC / checkerboard with ATM; details: for MIC: Pseudomonas aeruginosa, read-out: MIC of ATM with 5, PA-014
# PA-038, blaNDM = test: MIC / checkerboard with ATM; details: PA-038
structure (smiles),measurement,setting,value
"CC(C)(C)CCOc1c(-c2ccc(F)c(F)c2)oc2cc(OCC(=O)O)cc(O)c2c1=O [Compound 5, 2-((2-(3,4-Difluorophenyl)-3-(3,3-dimethylbutoxy)-5-hydroxy-4-oxo-4H-chromen-7-yl)oxy)acetic Acid]",Activity (FICI class),"PA-041, blaNDM; PA-041","S (S (Synergy, FICI ≤ 0.5))"
same,Concentrations of ATM and 5 at lowest FICI (ATM/5),"PA-041, blaNDM; PA-041",1/32
same,Lowest FICI (ATM/5),"PA-041, blaNDM; PA-041",0.31
same,Susceptibility to ATM,"PA-041, blaNDM; PA-041, ATM/5","S (S (sensitive, MIC ≤ 8 mg/L))"
same,FD (fold decrease in MIC of ATM with 5),"PA-041, blaNDM; PA-041, lowest-FICI combination",4
same,MIC,"PA-041, blaNDM; 5 at 1 mg/L",4 µg/mL
same,MIC,"PA-041, blaNDM; 5 at 2 mg/L",4 µg/mL
same,MIC,"PA-041, blaNDM; 5 at 4 mg/L",2 µg/mL
same,MIC,"PA-041, blaNDM; 5 at 8 mg/L",2 µg/mL
same,MIC,"PA-041, blaNDM; 5 at 16 mg/L",2 µg/mL
same,MIC,"PA-041, blaNDM; 5 at 32 mg/L",1 µg/mL
same,MIC,"PA-041, blaNDM; 5 at 64 mg/L",1 µg/mL
same,"Diff. (ATM + 5, 24 h vs initial inoculum)","PA-002, blaIMP; ATM 1/2 MIC + 5 at 8 mg/L",1.21 Log CFU/mL
same,Diff. (ATM + 5 vs ATM only),"PA-002, blaIMP; ATM 1/2 MIC + 5 at 8 mg/L",−2.36 Log CFU/mL
same,"Synergistic activity, interpretation","PA-002, blaIMP; ATM 1/2 MIC + 5 at 8 mg/L",Synergy (a ≥ 2 log10 decrease in CFU/mL for the combination of ATM and 5 compared to ATM alone after 24 h of incubation)
same,"Log CFU/mL, ATM + 5","PA-002, blaIMP; ATM 1/2 MIC + 5 at 8 mg/L",6.66 Log CFU/mL
same,"Diff. (ATM + 5, 24 h vs initial inoculum)","PA-002, blaIMP; ATM 1/4 MIC + 5 at 8 mg/L",2.26 Log CFU/mL
same,Diff. (ATM + 5 vs ATM only),"PA-002, blaIMP; ATM 1/4 MIC + 5 at 8 mg/L",−1.77 Log CFU/mL
same,"Log CFU/mL, ATM + 5","PA-002, blaIMP; ATM 1/4 MIC + 5 at 8 mg/L",7.71 Log CFU/mL
same,"Diff. (ATM + 5, 24 h vs initial inoculum)","PA-002, blaIMP; ATM 1 MIC + 5 at 8 mg/L",−2.42 Log CFU/mL
same,Diff. (ATM + 5 vs ATM only),"PA-002, blaIMP; ATM 1 MIC + 5 at 8 mg/L",−5.12 Log CFU/mL
same,"Synergistic activity, interpretation","PA-002, blaIMP; ATM 1 MIC + 5 at 8 mg/L",Synergy (a ≥ 2 log10 decrease in CFU/mL for the combination of ATM and 5 compared to ATM alone after 24 h of incubation)
same,"Log CFU/mL, ATM + 5","PA-002, blaIMP; ATM 1 MIC + 5 at 8 mg/L",3.03 Log CFU/mL
same,"Diff. (ATM + 5, 24 h vs initial inoculum)","PA-002, blaIMP; ATM 2 MIC + 5 at 8 mg/L",−5.45 Log CFU/mL
same,Diff. (ATM + 5 vs ATM only),"PA-002, blaIMP; ATM 2 MIC + 5 at 8 mg/L",−5.5 Log CFU/mL
same,"Synergistic activity, interpretation","PA-002, blaIMP; ATM 2 MIC + 5 at 8 mg/L",Synergy (a ≥ 2 log10 decrease in CFU/mL for the combination of ATM and 5 compared to ATM alone after 24 h of incubation)
same,"Log CFU/mL, ATM + 5","PA-002, blaIMP; ATM 2 MIC + 5 at 8 mg/L",0.00 Log CFU/mL
same,Activity (FICI class),"PA-021, blaIMP; PA-021","I (I (indifference, 0.5 < FICI ≤ 4))"
same,Lowest FICI (ATM/5),"PA-021, blaIMP; PA-021",0.50
same,Susceptibility to ATM,"PA-021, blaIMP; PA-021, ATM/5","S (S (sensitive, MIC ≤ 8 mg/L))"
same,FD (fold decrease in MIC of ATM with 5),"PA-021, blaIMP; PA-021, lowest-FICI combination",2
same,MIC,"PA-021, blaIMP; 5 at 1 mg/L",1 µg/mL
same,MIC,"PA-021, blaIMP; 5 at 2 mg/L",0.5 µg/mL
same,MIC,"PA-021, blaIMP; 5 at 4 mg/L",0.5 µg/mL
same,MIC,"PA-021, blaIMP; 5 at 8 mg/L",0.5 µg/mL
same,MIC,"PA-021, blaIMP; 5 at 16 mg/L",0.5 µg/mL
same,MIC,"PA-021, blaIMP; 5 at 32 mg/L",0.5 µg/mL
same,MIC,"PA-021, blaIMP; 5 at 64 mg/L",0.5 µg/mL
same,Activity (FICI class),"PA-032, blaIMP; PA-032","S (S (Synergy, FICI ≤ 0.5))"
same,Concentrations of ATM and 5 at lowest FICI (ATM/5),"PA-032, blaIMP; PA-032",2/8
same,Susceptibility to ATM,"PA-032, blaIMP; PA-032, ATM/5","S (S (sensitive, MIC ≤ 8 mg/L))"
same,FD (fold decrease in MIC of ATM with 5),"PA-032, blaIMP; PA-032, lowest-FICI combination",4
same,MIC,"PA-032, blaIMP; 5 at 1 mg/L",4 µg/mL
same,MIC,"PA-032, blaIMP; 5 at 2 mg/L",4 µg/mL
same,MIC,"PA-032, blaIMP; 5 at 4 mg/L",4 µg/mL
same,MIC,"PA-032, blaIMP; 5 at 8 mg/L",2 µg/mL
same,MIC,"PA-032, blaIMP; 5 at 16 mg/L",1 µg/mL
same,MIC,"PA-032, blaIMP; 5 at 32 mg/L",1 µg/mL
same,MIC,"PA-032, blaIMP; 5 at 64 mg/L",1 µg/mL
same,Activity (FICI class),"PA-026, blaNDM; PA-026","S (S (Synergy, FICI ≤ 0.5))"
same,Concentrations of ATM and 5 at lowest FICI (ATM/5),"PA-026, blaNDM; PA-026",2/4
same,Lowest FICI (ATM/5),"PA-026, blaNDM; PA-026",0.26
same,Susceptibility to ATM,"PA-026, blaNDM; PA-026, ATM/5","S (S (sensitive, MIC ≤ 8 mg/L))"
same,FD (fold decrease in MIC of ATM with 5),"PA-026, blaNDM; PA-026, lowest-FICI combination",4
same,MIC,"PA-026, blaNDM; 5 at 1 mg/L",4 µg/mL
same,MIC,"PA-026, blaNDM; 5 at 2 mg/L",4 µg/mL
same,MIC,"PA-026, blaNDM; 5 at 4 mg/L",2 µg/mL
same,MIC,"PA-026, blaNDM; 5 at 8 mg/L",2 µg/mL
same,MIC,"PA-026, blaNDM; 5 at 16 mg/L",1 µg/mL
same,MIC,"PA-026, blaNDM; 5 at 32 mg/L",1 µg/mL
same,MIC,"PA-026, blaNDM; 5 at 64 mg/L",1 µg/mL
same,Activity (FICI class),"PA-040, blaNDM; PA-040","S (S (Synergy, FICI ≤ 0.5))"
same,Concentrations of ATM and 5 at lowest FICI (ATM/5),"PA-040, blaNDM; PA-040",1/32
same,Lowest FICI (ATM/5),"PA-040, blaNDM; PA-040",0.31
same,Susceptibility to ATM,"PA-040, blaNDM; PA-040, ATM/5","S (S (sensitive, MIC ≤ 8 mg/L))"
same,FD (fold decrease in MIC of ATM with 5),"PA-040, blaNDM; PA-040, lowest-FICI combination",4
same,MIC,"PA-040, blaNDM; 5 at 1 mg/L",4 µg/mL
same,MIC,"PA-040, blaNDM; 5 at 2 mg/L",4 µg/mL
same,MIC,"PA-040, blaNDM; 5 at 4 mg/L",2 µg/mL
same,MIC,"PA-040, blaNDM; 5 at 8 mg/L",2 µg/mL
same,MIC,"PA-040, blaNDM; 5 at 16 mg/L",2 µg/mL
same,MIC,"PA-040, blaNDM; 5 at 32 mg/L",1 µg/mL
same,MIC,"PA-040, blaNDM; 5 at 64 mg/L",1 µg/mL
same,Activity (FICI class),"PA-014, blaGES; PA-014","S (S (Synergy, FICI ≤ 0.5))"
same,Concentrations of ATM and 5 at lowest FICI (ATM/5),"PA-014, blaGES; PA-014",4/16
same,Lowest FICI (ATM/5),"PA-014, blaGES; PA-014",0.28
same,Minimum concentration of 5 to make sensitive to ATM,"PA-014, blaGES; PA-014",4 mg/L
same,Susceptibility to ATM,"PA-014, blaGES; PA-014, ATM/5","S (S (sensitive, MIC ≤ 8 mg/L))"
same,FD (fold decrease in MIC of ATM with 5),"PA-014, blaGES; PA-014, lowest-FICI combination",4
same,MIC,"PA-014, blaGES; 5 at 1 mg/L",16 µg/mL
same,MIC,"PA-014, blaGES; 5 at 2 mg/L",16 µg/mL
same,MIC,"PA-014, blaGES; 5 at 4 mg/L",8 µg/mL
same,MIC,"PA-014, blaGES; 5 at 8 mg/L",8 µg/mL
same,MIC,"PA-014, blaGES; 5 at 16 mg/L",4 µg/mL
same,MIC,"PA-014, blaGES; 5 at 32 mg/L",4 µg/mL
same,MIC,"PA-014, blaGES; 5 at 64 mg/L",4 µg/mL
same,Activity (FICI class),"PA-038, blaNDM","S (S (Synergy, FICI ≤ 0.5))"
same,Concentrations of ATM and 5 at lowest FICI (ATM/5),"PA-038, blaNDM",4/8
